Assay results: patent publication US8436160B2, “Isolated DNA fragment of the SPARC human promoter and its use for driving the expression of an heterologous gene in tumor cells” (Consejo Nacional de Investigaciones Cientificas y Tecnicas …, priority 2006, dated 2013)

Assays:
[1] = system: A375N (melanoma), HeLa (cervix) and T-47D (breast) cell lines; experiment: Luciferase reporter promoter activity of SPARC promoter fragments; format: cell-based, human; conditions: pGL3 constructs; relative to pGL3-Basic; A375N expresses SPARC, HeLa and T-47D do not
Description: The promoters obtained according to Example 2 were subcloned in the MluI/BglII, MluI/XhoI or NheI/XhoI sites of the pGL3-Basic plasmid (Promega Corp., Madison, Wis., USA) upstream of the luciferase reporter gene. All of the clonings was confirmed by restriction profiles and by sequencing the vectors (pGEM, TOPO and/or pGL3) with the universal primers T7 (TACGACTCACTATAGGG; SEQ ID NO 27); Sp6 (ATTTAGGTGACACTATAG; SEQ ID NO 28), T3 ([…]; SEQ ID NO 29) or P2 ([…]; SEQ ID NO 30) and P3 ([…]; SEQ ID NO 31).
The presence of the luciferase reporter gene allowed for the quantification of SPARC promoter activity in the 11 fragments obtained in Example 2, by measuring the luciferase enzymatic activity. The assay was performed in three cell lines, using the (melanoma) A375N line as a model since it expresses high SPARC levels and the (cervix) HeLa and (breast) T-47D lines, not expressing SPARC, according to the teachings of Example 1 above.
(§1) The cells were seeded in 24-well plates with a density of 4×10^4 cells/well. After 24 hours they were transfected using Lipofectamine2000 (Invitrogen Corp., Carlsbad, Calif.) according to the conditions indicated by the manufacturer. Each treatment was carried out at least in duplicate for each cell line, incubating 0.8 μg of treatment plasmid with 0.1 μg of pRL-CMV plasmid for 5 minutes with 50 μl DMEM medium without antibiotic and simultaneously, 1 μl Lipofectamine2000 with 50 μl of the same medium. These two preparations were mixed and incubated for 20 minutes at room temperature. The medium with cell serum was removed, washed with PBS and 200 μl high glucose DMEM was added without serum and without antibiotics; subsequently, 100 μl medium containing the lipofection mixture was added and 800 μl of culture medium corresponding to each cell line, supplemented with BFS, was added 4 hours later. The cells used were kept in a stove for 46 hours at 37° C. with 5% CO2. The Dual Luciferase Reporter Assay System kit (Promega Corp., Madison, Wis.) was used for the luciferase assay. This system implies the simultaneous expression of two individual reporter enzymes in the same system, allowing for the evaluation of the activity produced by the luciferase enzymes from the Firefly glow-worm (Photinus pyralis) and the Renilla coelenterate (Renilla reniformis) in only one sequential assay (Sherf, B. A. et al., Dual Luciferase Reporter Assay: An Advanced Co-Reporter Technology Integrating Firefly and Renilla Luciferase Assays. Promega Notes Magazine: 2-9, 1996). The data were normalized in the following way:
(§2) The data are expressed as induction amount relative to the activity obtained with the pGL3-Basic control plasmid (without promoter). […]

[2] = system: different tumor and normal cell lines; experiment: Luciferase reporter promoter activity, F512 vs Spdel; format: cell-based; conditions: for promoter activity across cell lines vs SPARC expression: melanoma, colon (T84, LoVo), glioma (U87), cervix (HeLa)
Protocol: as §1, §2
(§3) The two promoters F512 and Spdel, having similar promoter activity and as identified by the method of Example 3A, were assessed in different tumor and normal cell lines (see references in Example 1).

melanoma line MEL888 = experiment: Luciferase reporter promoter activity; format: cell-based, human
Protocol: as §1
(§4) The data are expressed as induction amount relative to the activity obtained with the pGL3-Basic control plasmid (without promoter). The pGl3-promoter plasmid (pGL3-prom, Promega Corp., Madison, Wis.) wherein the viral promoter from SV40 drives the expression of the luciferase enzyme, was used as a transfection control.
as §3

hMEC-1 cells = experiment: Ad(I)-F512-TK lytic effect in monolayer with GCV prodrug; format: cell-based, human
Protocol: (§5) According to the present inventors' hypothesis, normal cells have more resistance to viral replication. In this case, adding a toxic gene would allow for the enhancement of the lytic capability in a specific manner in those cells wherein the SPARC promoter was active. Thus, in vitro assays with Ad(I)-F512-TK were carried out, in which the cells were also treated by adding ganciclovir (GCV) prodrug. […] Other analyzed endothelial cells were those of bovine aorta (BAEC, kindly provided by Helene Sage, Seattle, USA).

BAEC cells = experiment: as above; format: cell-based, Bovine
Protocol: as §5

SB2 line = experiment: Luciferase reporter promoter activity; format: cell-based, human
Protocol: as §1, §4, §3

T84 = experiment: Luciferase reporter promoter activity; format: cell-based, human
Protocol: as §1, §4, §3

fibroblast line WI-38 VA = experiment: Luciferase reporter promoter activity; format: cell-based, human
Protocol: as §1, §4, §3

endothelium BAEC line = experiment: Luciferase reporter promoter activity; format: cell-based, Bovine
Protocol: The cells were seeded in 24-well plates with a density of 4×10^4 cells/well. After 24 hours they were transfected using Lipofectamine2000 (Invitrogen Corp., Carlsbad, Calif.) according to the conditions indicated by the manufacturer. Each treatment was carried out at least in duplicate for each cell line, incubating 0.8 μg of treatment plasmid with 0.1 μg of pRL-CMV plasmid for 5 minutes with 50 μl DMEM medium without antibiotic and simultaneously, 1 μl Lipofectamine2000 with 50 μl of the same medium. These two preparations were mixed and incubated for 20 minutes at room temperature. The medium with cell serum was removed, washed with PBS and 200 μl high glucose DMEM was added without serum and without antibiotics; subsequently, 100 μl medium containing the lipofection mixture was added and 800 μl of culture medium corresponding to each cell line, supplemented with BFS, was added 4 hours later. The cells used were kept in a stove for 46 hours at 37° C. with 5% CO2. […]
as §2, §3

## −1175/+71: complete human SPARC promoter, SEQ ID NO 17
[1]
  promoter activity and specificity (luciferase): lower promoter activity in melanoma lines

## Spdel: complete SPARC promoter −1175/+71 with the 10 bp between the two GGA boxes deleted, SEQ ID NO 18
[1]
  promoter activity and specificity (luciferase): same activity than F512, in the A375N melanoma line
[2]; average, both in tumor and normal lines
  promoter activity with respect to the empty vector pGL3-Basic: 140 times higher
[2]
  promoter activity across cell lines vs SPARC expression: same activity in all lines
Melanoma line MEL888
  promoter activity with respect to the empty vector pGL3-Basic: 430 times higher

## Nc1nc(O)c2ncn(COC(CO)CO)c2n1 [GCV, ganciclovir]
hMEC-1 cells
  sensitivity of cells to prodrug alone: sensitive to the presence of the prodrug alone
BAEC cells
  sensitivity of cells to prodrug: sensitive to the prodrug

B1: −120/+71: SPARC promoter fragment including the complete first exon, SEQ ID NO 24 (nucleic acid, listed as Homo sapiens)
DNA: GGGAGAAGGAGGAGGCCGGGGGAAGGAGGAGACAGGAGGAGGAGGGACCACGGGGTGGAGGGGAGATAGACCCAGCCCAGAGCTCTGAGTGGTTTCCTGTTGCCTGTCTCTAAACCCCTCCACATTCCCGCGGTCCTTCAGACTGCCCGGAGAGCGCGCTCTGCCTGCCGCCTGCCTGCCTGCCACTGAGG
[1]
  promoter activity and specificity (luciferase): higher unspecificity

B2: F512: human SPARC promoter fragment from base pair −513 to +35, SEQ ID NO 1 (nucleic acid, listed as Homo sapiens)
DNA: GCAGCTTGTCTTGTCTGTACAGTGGTAAGTCCTGGCCTTGCCTTTGTGGCAAATACAACCCCCTTGAATTGCTTGGCCCTTCTCAGCATTGCCTAATATTAGGGAGGACTCCTGTAAAGCTCACTGGTTAGAAGATCAAGACACTTGGGCCTGGTTCTGCCCCTGGGGGCCATTGGGTAATTCCTTGCAGTCTCCAGGCCTCACTTGCCCTCTGAACAAGAAAGAGGCTGTTCTGGGTCATCCCTCCAGGCCTGTCCAGCCCTGGCACTCTGTGAGTCGGTTTAGGCAGCAGCCCCGGAACAGATGAGGCAGGCAGGGTTGGGACGTTTGGTCAGGACAGCCCACCGCAAAAAGAGGAGGAAAGAAATGAAAGACAGAGACAGCTTTGGCTATGGGAGAAGGAGGAGGCCGGGGGAAGGAGGAGACAGGAGGAGGAGGGACCACGGGGTGGAGGGGAGATAGACCCAGCCCAGAGCTCTGAGTGGTTTCCTGTTGCCTGTCTCTAAACCCCTCCACATTCCCGCGGTCCTTCAGACTGCCCGGAGAGC
modifications: DNA fragment of the SPARC human promoter.
[1]
  promoter activity and specificity (luciferase): higher specificity and higher activity in the line expressing SPARC
[2]
  promoter activity across cell lines vs SPARC expression: lower activity in those lines with little or null SPARC expression
SB2 line
  promoter activity relative to the activity observed in A375N: approximately ⅓
T84
  promoter activity relative to melanoma lines: half the activity observed for the melanoma lines
Fibroblast line WI-38 VA
  promoter activity: active
Endothelium BAEC line
  promoter activity: active
